Measured values: paper PMC11435058, “Synthesis of New Thiazole-Privileged Chalcones as Tubulin Polymerization Inhibitors with Potential Anticancer Activities” (Pharmaceuticals, 2024)

Assays:
UO-31 = assay: NCI-60 anticancer screen (SRB; single dose and five doses); details: Homo sapiens
SNB-75 = assay: as above
tubulin = assay: In vitro tubulin polymerization inhibition assay; type: biochemical; details: 4 mg/mL tubulin, 37°C, absorbance at 340 nm
Experimental: 4.2.2. In Vitro Tubulin Polymerization Inhibition Assay.
2p, and the reference drug CD -4) with the microtubule system. Specifically, the in vitro inhibition of tubulin polymerization was evaluated for these compounds. The standard tubulin polymerization reaction was carried out, containing 100 μL of 4 mg/mL tubulin in a buffer solution of 80 mM PIPES (pH 6.9), 0.5 mM EGTA, 2 mM MgCl2, and 1 mM GTP. Polymerization was initiated by incubating the reaction […]
Under these conditions, polymerization typically reaches a maximum absorbance of […]
growth, and steady state. In this experimental set up, an absorbance of 0.1 at 340 nm corresponds to approximately 1 mg/mL of polymerized tubulin, meaning that around […]
40% of the tubulin is polymerized, allowing for the detection of both enhancers and inhibitors of polymerization. The inhibitory effect of each compound on tubulin polymerization was quantified by determining the IC50 values, which were reported as the mean ± standard deviation from three independent experiments. […]

TK-10 = assay: NCI-60 anticancer screen (SRB; single dose and five doses); details: Homo sapiens
UACC-62 = assay: as above; details: Homo sapiens
COLO 205 = assay: as above; details: Homo sapiens
HS 578T = assay: as above; details: Homo sapiens
HCC-2998 = assay: as above
DU-145 = assay: as above; details: Homo sapiens
OVCAR-5 = assay: as above; details: Homo sapiens
SK-MEL-28 = assay: as above; details: Homo sapiens
786-0 = assay: as above; details: Homo sapiens
T-47D = assay: as above; details: Homo sapiens, T47D
IGROV1 = assay: as above; details: Homo sapiens
EKVX = assay: as above; details: Homo sapiens
BT-549 = assay: as above; details: Homo sapiens
OVCAR-4 = assay: as above; details: Homo sapiens
CAKI-1 = assay: as above; details: Homo sapiens
HT29 = assay: as above; details: Homo sapiens
SK-OV-3 = assay: as above; details: Homo sapiens
HCT-116 = test system: HCT-116; parameters: method as in doi:10.1080/00397911.2021.1884262; details: HCT-116 colorectal cancer cells; cited from earlier work
Lovo = test system: Lovo; parameters: method as in doi:10.1080/00397911.2021.1884262; details: Lovo colorectal cancer cells; cited from earlier work
HT-29 = test system: HT-29; parameters: method as in doi:10.1080/00397911.2021.1884262; details: HT-29 colorectal cancer cells; cited from earlier work

Molecule COc1ccc(/C=C\c2cc(OC)c(OC)c(OC)c2)cc1O [CA-4, Combretastatin-A4, reference compound] has a GI50 (UO-31; UO-31) of 0.19 µM, an IC (TGI) (UO-31; UO-31, read-out: TGI) of 4.16 µM and a GI50 (SNB-75; Homo sapiens, SNB-75) of 0.83 µM. The CC50 (SNB-75; Homo sapiens, SNB-75, read-out: LC50) was 82.4 µM, the TGI (SNB-75; five-dose, CNS Cancer SNB-75) was 24.72 µM and the IC50 (tubulin) was […]. For the same molecule, the IC50 (tubulin; listed as Combretastatin-A4 (CA-4)) was […], the GI50 (TK-10; TK-10) was 0.57 µM and the CC50 (TK-10; TK-10, read-out: LC50) was over 100 µM. It also gave an IC (TGI) (TK-10; TK-10, read-out: TGI) of 11.5 µM, a GI50 (UACC-62; UACC-62) of 0.01 µM and an IC (TGI) (UACC-62; UACC-62, read-out: TGI) of 80.5 µM. It also gave a GI50 (COLO 205; COLO 205) of 2.49 µM, a CC50 (COLO 205; COLO 205, read-out: LC50) of over 100 µM and an IC (TGI) (COLO 205; COLO 205, read-out: TGI) of 43.2 µM. For the same molecule, the GI50 (HS 578T) was 0.15 µM, the CC50 (HS 578T; read-out: LC50) was over 100 µM and the IC (TGI) (HS 578T; read-out: TGI) was 0.22 µM. For the same molecule, the GI50 (HCC-2998; Homo sapiens, HCC 2998) was 0.05 µM, the CC50 (HCC-2998; Homo sapiens, HCC 2998, read-out: LC50) was 26.9 µM and the TGI (HCC-2998; five-dose, Colon Cancer HCC-2998) was 1.22 µM. For the same molecule, the GI50 (DU-145; DU-145) was 0.01 µM, the CC50 (DU-145; DU-145, read-out: LC50) was over 100 µM and the IC (TGI) (DU-145; DU-145, read-out: TGI) was 78.9 µM. It also gave a GI50 (OVCAR-5; OVCAR-5) of 0.18 µM, a CC50 (OVCAR-5; OVCAR-5, read-out: LC50) of over 100 µM and an IC (TGI) (OVCAR-5; OVCAR-5, read-out: TGI) of 83.2 µM. The GI50 (SK-MEL-28; SK-MEL-28) was 3.16 µM, the CC50 (SK-MEL-28; SK-MEL-28, read-out: LC50) was 90.8 µM and the IC (TGI) (SK-MEL-28; SK-MEL-28, read-out: TGI) was 82.4 µM. It also gave a GI50 (786-0; 786-0) of 0.02 µM, a CC50 (786-0; 786-0, read-out: LC50) of over 100 µM and an IC (TGI) (786-0; 786-0, read-out: TGI) of over 100 µM. The GI50 (T-47D) was 48 µM, the CC50 (T-47D; read-out: LC50) was over 100 µM and the IC (TGI) (T-47D; read-out: TGI) was 2.04 µM. The GI50 (IGROV1; IGROV-1) was 0.06 µM, the CC50 (IGROV1; IGROV-1, read-out: LC50) was over 100 µM and the IC (TGI) (IGROV1; IGROV-1, read-out: TGI) was 63.5 µM. It also gave a GI50 (EKVX) of 0.36 µM, a CC50 (EKVX; read-out: LC50) of over 100 µM and an IC (TGI) (EKVX; read-out: TGI) of 82 µM. For the same molecule, the GI50 (BT-549; BT-549) was 0.01 µM, the IC (TGI) (BT-549; BT-549, read-out: TGI) was 8.09 µM and the GI50 (OVCAR-4; OVCAR-4) was 0.26 µM. For the same molecule, the CC50 (OVCAR-4; OVCAR-4, read-out: LC50) was 20.2 µM, the IC (TGI) (OVCAR-4; OVCAR-4, read-out: TGI) was 0.16 µM and the GI50 (CAKI-1; CAKI-1) was 0.04 µM. The CC50 (CAKI-1; CAKI-1, read-out: LC50) was 97 µM, the IC (TGI) (CAKI-1; CAKI-1, read-out: TGI) was 8.22 µM and the GI50 (HT29; HT-29) was 0.66 µM. For the same molecule, the CC50 (HT29; HT-29, read-out: LC50) was 38.7 µM, the IC (TGI) (HT29; HT-29, read-out: TGI) was 5.51 µM and the GI50 (SK-OV-3; SK-OV-3) was 28.4 µM. The CC50 (SK-OV-3; SK-OV-3, read-out: LC50) was 89.5 µM and the IC (TGI) (SK-OV-3; SK-OV-3, read-out: TGI) was 0.36 µM.

In the case of Cc1nc(-c2ccc(C(F)(F)F)cc2)sc1C(=O)/C=C/c1ccc(C(=O)O)cc1 [V], the IC50 (HCT-116) is listed as 3.12 µM, the IC50 (Lovo) is listed as 2.21 µM and the IC50 (HT-29) is listed as 7.94 µM.
